These results are taken from patent US12258354B2, “AhR modulators” (IDEAYA BIOSCIENCES, INC., priority 2018, dated 2025).

Molecules are shown by their SMILES.

The test addresses T1, hAhR (Homo sapiens, UniProt P35869).
T1 construct: Stably integrated DRE-luciferase cell lines were generated by transducing the both cell lines with Cignal XRE luciferase reporter; endogenous in cells; host or cells: HEPG2 DRE-Luc cells (only the XRE luciferase reporter was transduced)
T1 sequence (P35869 11-848): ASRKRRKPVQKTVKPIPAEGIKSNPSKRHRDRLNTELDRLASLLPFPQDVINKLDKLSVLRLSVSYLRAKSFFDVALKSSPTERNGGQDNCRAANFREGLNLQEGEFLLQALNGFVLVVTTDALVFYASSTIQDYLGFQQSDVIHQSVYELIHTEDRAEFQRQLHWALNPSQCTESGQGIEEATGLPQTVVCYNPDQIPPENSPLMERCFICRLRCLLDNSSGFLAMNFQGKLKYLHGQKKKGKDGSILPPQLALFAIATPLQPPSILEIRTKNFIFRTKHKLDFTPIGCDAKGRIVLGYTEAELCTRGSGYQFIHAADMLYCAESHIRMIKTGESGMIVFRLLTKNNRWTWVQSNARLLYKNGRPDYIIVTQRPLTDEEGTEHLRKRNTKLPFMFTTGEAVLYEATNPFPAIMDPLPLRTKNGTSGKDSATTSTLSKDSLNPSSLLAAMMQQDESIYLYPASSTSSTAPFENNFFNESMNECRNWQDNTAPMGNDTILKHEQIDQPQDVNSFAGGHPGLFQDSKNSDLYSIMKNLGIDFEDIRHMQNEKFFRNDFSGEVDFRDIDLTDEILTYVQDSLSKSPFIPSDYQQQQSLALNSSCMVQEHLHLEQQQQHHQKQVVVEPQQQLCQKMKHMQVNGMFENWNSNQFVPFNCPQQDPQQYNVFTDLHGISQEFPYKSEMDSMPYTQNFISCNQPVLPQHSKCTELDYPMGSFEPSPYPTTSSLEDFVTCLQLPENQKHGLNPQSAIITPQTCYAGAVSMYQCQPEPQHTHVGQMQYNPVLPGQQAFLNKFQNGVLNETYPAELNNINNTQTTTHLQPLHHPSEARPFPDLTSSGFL
Nature of the test: DRE-luciferase transcriptional reporter assay in HEPG2 DRE-Luc cells, TCDD-induced (antagonist mode). The note with it: relative IC50, 3 nM TCDD, 24-hour incubation, firefly luciferase readout. It counts as cell-based. Summed up: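 Stable DRE(XRE)-luciferase HEPG2 clone seeded in OptiMEM with 0.5% heat-inactivated FBS, then given a semi-log compound dilution plus TCDD at 3 nM final. After 24 h, cells were lysed and firefly luminescence read. Response was normalised between TCDD and vehicle, and relative IC50 was taken as half-reduction between the fitted curve plateaus.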
In general terms: In a reporter assay the amount or activity of a reporter protein is the signal.
Molecule `Cc1cc(-c2ncc3cc(C(F)(F)F)ccc3n2)ccc1N1CCOc2cnn(CCN3CCC(F)(F)CC3)c2C1=O` [compound 073, 1-(2-(4,4-difluoropiperidin-1-yl)ethyl)-7-(2-methyl-4-(6-(trifluoromethyl)-quinazolin-2-yl)phenyl)-6,7-dihydro-1H-pyrazolo[3,4-f][1,4]oxazepin-8 (5H)-one] displayed an IC50 of 1000 to 10000 nM.

The molecule `Cc1cc(-c2ncc3cc(C(F)(F)F)ccc3n2)ccc1N1CCOc2cnn(Cc3nnn[nH]3)c2C1=O` [compound 075, 7-[2-methyl-4-[6-(trifluoromethyl)quinazolin-2-yl]phenyl]-1-[(1H-1,2,3,4-tetrazol-5-yl)methyl]-1H,5H,6H,7H,8H-pyrazolo[3,4-f][1,4]oxazepin-8-one] registered a concentration for half-maximal inhibition (IC50) of 1000 to 10000 nM.

For `Cc1cc(-c2ncc3cc(C(F)(F)F)ccc3n2)ccc1N1CCOc2cnn(CC(=O)O)c2C1=O` [compound 076, 2-(7-(2-methyl-4-(6-(trifluoromethyl)quinazolin-2-yl)phenyl)-8-oxo-5,6,7,8-tetrahydro-1H-pyrazolo[3,4-f][1,4]oxazepin-1-yl)acetic acid], the half-maximal inhibitory concentration (IC50) lay within 1000 to 10000 nM.

Turning to `Cc1cc(-c2ncc3cc(C(F)(F)F)ccc3n2)ccc1N1CCOc2cn(Cc3nnn[nH]3)nc2C1=O` [compound 077, 2-((1H-tetrazol-5-yl)methyl)-7-(2-methyl-4-(6-(trifluoromethyl)-quinazolin-2-yl)phenyl)-6,7-dihydro-2H-pyrazolo[3,4-f][1,4]oxazepin-8 (5H)-one], the half-maximal inhibitory concentration (IC50) lay in the range of 1000 to 10000 nM.

The molecule `Cc1cc(-c2ncc3cc(C(F)(F)F)ccc3n2)ccc1N1CCOc2cn(CC(=O)O)nc2C1=O` [compound 078, 2-(7-(2-methyl-4-(6-(trifluoromethyl)quinazolin-2-yl)phenyl)-8-oxo-5,6,7,8-tetrahydro-2H-pyrazolo[3,4-f][1,4]oxazepin-2-yl)acetic acid] showed an IC50 of 1000 to 10000 nM.

`Cc1cc(-c2ncc3cc(C(F)(F)F)ccc3n2)ccc1N1CCn2ncc(CO)c2C1=O` [compound 079, 3-(hydroxymethyl)-5-(2-methyl-4-(6-(trifluoromethyl)quinazolin-2-yl)phenyl)-6,7-dihydropyrazolo[1,5-a]pyrazin-4 (5H)-one] showed an IC50 of under 200 nM.

With `Cc1cc(-c2ncc3cc(C(F)(F)F)ccc3n2)ccc1N1CCn2nc(C(=O)N[C@H](C)CO)c(C)c2C1=O` [compound 080, (R)-N-(1-hydroxypropan-2-yl)-3-methyl-5-(2-methyl-4-(6-(trifluoromethyl)-quinazolin-2-yl)phenyl)-4-oxo-4,5,6,7-tetrahydropyrazolo[1,5-a]pyrazine-2-carboxamide], the IC50 is under 200 nM.

As for `Cc1cc(-c2ncc3cc(C(F)(F)F)ccc3n2)ccc1N1CCn2ncc(N[C@@H](C)CO)c2C1=O` [compound 081, (S)-3-((1-hydroxypropan-2-yl)amino)-5-(2-methyl-4-(6-(trifluoromethyl)-quinazolin-2-yl)phenyl)-6,7-dihydropyrazolo[1,5-a]pyrazin-4 (5H)-one], the IC50 is under 200 nM.

`Cc1cc(-c2ncc3nc(C(F)(F)F)ccc3n2)ccc1N1CCOc2c(CO)nn(C)c2C1=O` [compound 082, 3-(hydroxymethyl)-1-methyl-7-(2-methyl-4-(6-(trifluoromethyl)-pyrido-[3,2-d]pyrimidin-2-yl)phenyl)-6,7-dihydro-1H-pyrazolo[3,4-f][1,4]oxazepin-8 (5H)-one] came in with an IC50 of under 200 nM.

As for `Cc1cc(-c2ncc3nc(C(F)(F)F)ccc3n2)ccc1N1CCOc2c(C(C)O)nn(C)c2C1=O` (stereo not drawn) [compound 083, 3-(1-hydroxyethyl)-1-methyl-7-(2-methyl-4-(6-(trifluoromethyl)-pyrido[3,2-d]pyrimidin-2-yl)phenyl)-6,7-dihydro-1H-pyrazolo[3,4-f][1,4]oxazepin-8 (5H)-one], the half-maximal inhibitory concentration (IC50) was under 200 nM.

Turning to `Cc1cc(-c2ncc3nc(C(F)(F)F)ccc3n2)ccc1N1CCOc2c(C(C)(C)O)nn(C)c2C1=O` [compound 084, 3-(2-hydroxypropan-2-yl)-1-methyl-7-(2-methyl-4-(6-(trifluoromethyl)pyrido[3,2-d]pyrimidin-2-yl)phenyl)-6,7-dihydro-1H-pyrazolo[3,4-f][1,4]oxazepin-8 (5H)-one], the IC50 was under 200 nM.

`Cc1cc(-c2ncc3nc(C(F)(F)F)ccc3n2)ccc1N1CCOc2c(CN(C)C)nn(C)c2C1=O` [compound 085, 3-((dimethylamino)methyl)-1-methyl-7-(2-methyl-4-(6-(trifluoromethyl)pyrido-[3,2-d]pyrimidin-2-yl)phenyl)-6,7-dihydro-1H-pyrazolo[3,4-f][1,4]oxazepin-8 (5H)-one] returned an IC50 of under 200 nM.

For `CCOC(=O)c1nn(C)c2c1OCCN(c1ccc(-c3ncc4nc(C(F)(F)F)ccc4n3)cc1C)C2=O` [compound 086, ethyl 1-methyl-7-(2-methyl-4-(6-(trifluoromethyl)pyrido[3,2-d]pyrimidin-2-yl)phenyl)-8-oxo-5,6,7,8-tetrahydro-1H-pyrazolo[3,4-f][1,4]oxazepine-3-carboxylate], the half-maximal inhibitory concentration (IC50) is under 200 nM.

`Cc1cc(-c2ncc3nc(C(F)(F)F)ccc3n2)ccc1N1CCn2nc(CO)c(C)c2C1=O` [compound 088, 2-(hydroxymethyl)-3-methyl-5-(2-methyl-4-(6-(trifluoromethyl)-pyrido-[3,2-d]pyrimidin-2-yl)phenyl)-6,7-dihydropyrazolo[1,5-a]pyrazin-4 (5H)-one] returned an IC50 of under 200 nM.

Take `Cc1cc(-c2ncc3cc(C(F)(F)F)ccc3n2)ccc1N1CCn2nc(OCCO)c(C)c2C1=O` [compound 089, 2-(2-hydroxyethoxy)-3-methyl-5-(2-methyl-4-(6-(trifluoromethyl)quinazolin-2-yl)phenyl)-6,7-dihydropyrazolo[1,5-a]pyrazin-4 (5H)-one]: the 50% inhibitory concentration (IC50) is under 200 nM.

Consider `Cc1cc(-c2ncc3cc(C(F)(F)F)ccc3n2)ccc1N1CC(COCc2ccccc2)n2ncc(C)c2C1=O` (stereo not drawn) [compound 090, 7-((benzyloxy)methyl)-3-methyl-5-(2-methyl-4-(6-(trifluoromethyl)-quinazolin-2-yl)phenyl)-6,7-dihydropyrazolo[1,5-a]pyrazin-4 (5H)-one], for which the concentration for half-maximal inhibition (IC50) was under 200 nM.

Molecule `Cc1cc(-c2ncc3cc(C(F)(F)F)ccc3n2)ccc1N1CCn2nc(CN3CCOC(C)C3)c(C)c2C1=O` (stereo not drawn) [compound 091, 3-methyl-5-(2-methyl-4-(6-(trifluoromethyl)quinazolin-2-yl)phenyl)-2-((2-methylmorpholino)methyl)-6,7-dihydropyrazolo[1,5-a]pyrazin-4 (5H)-one] gave a half-inhibitory concentration (IC50) of under 200 nM.

For `Cc1cc(-c2ncc3cc(C(F)(F)F)ccc3n2)ccc1N1CCn2nc(C(C)O)cc2C1=O` (stereo not drawn) [compound 092, 2-(1-hydroxyethyl)-5-(2-methyl-4-(6-(trifluoromethyl)quinazolin-2-yl)phenyl)-6,7-dihydropyrazolo[1,5-a]pyrazin-4 (5H)-one], the IC50 is under 200 nM.

One may read the IC50 as the concentration at which inhibition is half-maximal. The low end stands for greater potency, the high end for weaker potency.
